MIC and CC50 data for 19 compounds are collected here from patent publication US20160194299A1 (priority 2013, published 2016).

≈ marks a conversion by molar mass, not a printed value. Like-named read-outs stand apart in the source and are kept apart here.

Data set [1] relates to Mtb. Kind of data set: microbe, parasite or virus in culture. The class given is cell-based, Mycobacterium tuberculosis. The conditions noted are these: Mycobacterium tuberculosis, read-out: MIC (I).
The subject of data set [2] is Mtb. Kind of data set: microbe, parasite or virus in culture. Type of data set: cell-based, Mycobacterium tuberculosis. The conditions noted are these: Mycobacterium tuberculosis, read-out: MIC (III).
Data set [3] is described as follows: in vitro. The note with it: African green monkey.

Consider `CCOC(=O)NC(=O)c1cc(CC(=O)OC)sc1NC(=O)c1nc2cnccc2s1` [Compound 276], for which the MIC in data set [1] is > 3 µg/mL; in data set [2], > 25 µg/mL. The compound further gave a CC50 in data set [3] of 25 to 50 µg/mL (≈ 55.7 to 111 µM).
For `CCOC(=O)NC(=O)c1cc(CC(C(=O)OCC)C(=O)OCC)sc1NC(=O)c1nc2cnccc2s1` [Compound 278] the same measures were > 3 µg/mL, > 25 µg/mL and > 50 µg/mL.
For `CCOC(=O)NC(=O)c1cc(C(=O)OCC)sc1NC(=O)c1nc2cnccc2s1` [Compound 279], the results for the MIC in data set [1] and in data set [2] were > 3 µg/mL and > 25 µg/mL, respectively. In data set [3], the CC50 was 25 to 50 µg/mL (≈ 55.7 to 111 µM).
In the same order, the values of `Cc1cc(COC(=O)NC(=O)c2ccsc2NC(=O)c2nc3cnccc3s2)ccn1` [Compound 280] are > 3 µg/mL, > 25 µg/mL and 25 to 50 µg/mL (≈ 55.1 to 110 µM).
In the same order, the values of `CC(C)COC(=O)NC(=O)c1ccsc1NC(=O)c1nc2ccccc2s1` [Compound 281] are < 1 µg/mL, > 25 µg/mL and 25 to 50 µg/mL (≈ 62 to 124 µM).
In the same order, the values of `CC(C)COC(=O)NC(=O)c1ccsc1NC(=O)c1nc2cnccc2s1` [Compound 282] are > 3 µg/mL, > 25 µg/mL and 25 to 50 µg/mL (≈ 61.8 to 124 µM).
For the compound `CC(C)COC(=O)NC(=O)c1ccsc1NC(=O)c1cnc2ccnn2c1` [Compound 283], the MIC was 1 to 3 µg/mL (≈ 2.58 to 7.74 µM) in data set [1] and > 25 µg/mL in data set [2]. The CC50 in data set [3] is 25 to 50 µg/mL (≈ 64.5 to 129 µM).
In the case of `O=C(NC(=O)c1ccsc1NC(=O)c1cnc2ccnn2c1)OCc1ccc(F)cc1` [Compound 284], the figures for the MIC in data set [1] and in data set [2] were > 3 µg/mL and > 25 µg/mL, respectively. The compound further had a CC50 in data set [3] of 25 to 50 µg/mL (≈ 56.9 to 114 µM).
Take `O=C(NC(=O)c1ccsc1NC(=O)c1cnc2ccnn2c1)OCc1ccccc1F` [Compound 285]: the results for the MIC in data set [1] and in data set [2] were > 3 µg/mL and > 25 µg/mL, respectively. For the same compound, the CC50 in data set [3] was < 25 µg/mL.
On to `O=C(NC(=O)c1ccsc1NC(=O)c1nc2cnccc2s1)OCc1ccccc1F` [Compound 287], for which the MIC in data set [1] lay within 1 to 3 µg/mL (≈ 2.19 to 6.57 µM); in data set [2] it was 5 to 25 µg/mL (≈ 11 to 54.8 µM). The CC50 in data set [3] lay within 25 to 50 µg/mL (≈ 54.8 to 110 µM).
For `O=C(NC(=O)c1ccsc1NC(=O)c1nc2cccnc2s1)OCc1ccccc1C(F)(F)F` [Compound 288] the same measures were > 3 µg/mL, 5 to 25 µg/mL (≈ 9.87 to 49.4 µM) and < 25 µg/mL.
For `O=C(NC(=O)c1ccsc1NC(=O)c1cnc2ccnn2c1)OCc1ccccc1C(F)(F)F` [Compound 289] the same measures were > 3 µg/mL, > 25 µg/mL and < 25 µg/mL.
For `CCOC(=O)NC(=O)c1ccsc1NC(=O)c1cn2c(C)cccc2n1` [Compound 290] the same measures were > 3 µg/mL, > 25 µg/mL and > 50 µg/mL.
Consider `O=C(Nc1sccc1C(=O)OCCN1CCOCC1)c1nc2ccccc2s1` [Compound 291], for which the MIC in data set [1] was > 3 µg/mL; in data set [2], > 25 µg/mL. Further, the CC50 in data set [3] is > 50 µg/mL.
On to `CCOC(=O)NC(=O)c1ccsc1NC(=O)c1cn2c(n1)sc1ccccc12` [Compound 292], for which the MIC in data set [1] was > 3 µg/mL; in data set [2], > 25 µg/mL. In data set [3], the CC50 is > 50 µg/mL.
For `C=CCOC(=O)NC(=O)c1ccsc1NC(=O)c1nc2ccccc2s1` [Compound 293] the same measures were < 1 µg/mL, < 5 µg/mL and < 25 µg/mL.
In the same order, the values of `O=C(NC(=O)c1ccsc1NC(=O)c1nc2ccccc2s1)OCc1ccccc1C(F)(F)F` [Compound 294] are > 3 µg/mL, > 25 µg/mL and 25 to 50 µg/mL (≈ 49.5 to 98.9 µM).
In the same order, the values of `O=C(NC(=O)c1ccsc1NC(=O)c1nc2cnccc2s1)OCc1ccccc1C(F)(F)F` [Compound 295] are > 3 µg/mL, 5 to 25 µg/mL (≈ 9.87 to 49.4 µM) and < 25 µg/mL.
On to `CC(C)OC(=O)NC(=O)c1ccsc1NC(=O)c1c(F)c(F)c(F)c(F)c1F` [Compound 296], for which the MIC is > 3 µg/mL in data set [1] and 5 to 25 µg/mL (≈ 11.8 to 59.2 µM) in data set [2]. In data set [3], the CC50 is < 25 µg/mL.
